Results from ChEMBL document CHEMBL1201862, “PubChem BioAssay data set” (2004).
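Dose response: 5 concentrations. Exposure: 48 h. Format: 96-well plates. Endpoint: linear interpolation; highest concentration if not reached. The concentration for 50% growth inhibition is given as GI50.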 Active and inactive are the calls of the source. Rule as the data show it: active = GI50 up to about 1.1 µM and inactive = higher.

Experiments:
Assay in all cases: NCI anticancer screen, dose series, 48 h
OVCAR-4 = test system: OVCAR-4
BT-549 = test system: BT-549
SK-OV-3 = test system: SK-OV-3
UACC-62 = test system: UACC-62
CAKI-1 = test system: CAKI-1
RXF 393 = test system: RXF 393
OVCAR-5 = test system: OVCAR-5
HT-29 = test system: HT-29
SR = test system: SR
SK-MEL-5 = test system: SK-MEL-5
HOP-92 = test system: HOP-92
DU-145 = test system: DU-145
IGROV-1 = test system: IGROV-1
T47D = test system: T47D
SF-539 = test system: SF-539
LOX IMVI = test system: LOX IMVI
NCI-H226 = test system: NCI-H226
MOLT-4 = test system: MOLT-4
HOP-62 = test system: HOP-62
MDA-N = test system: MDA-N

Row | Structure (SMILES) | GI50 (OVCAR-4) | GI50 (BT-549) | GI50 (SK-OV-3) | GI50 (UACC-62) | GI50 (CAKI-1) | GI50 (RXF 393) | GI50 (OVCAR-5) | GI50 (HT-29) | GI50 (SR) | GI50 (SK-MEL-5) | GI50 (HOP-92) | GI50 (DU-145) | GI50 (IGROV-1) | GI50 (T47D) | GI50 (SF-539) | GI50 (LOX IMVI) | GI50 (NCI-H226) | GI50 (MOLT-4) | GI50 (HOP-62) | GI50 (MDA-N)
1 | COc1ccccc1/C=C1\CCC(CN(C)C)C1=O (stereo not drawn) | 6.92 µM (inactive) | 13.3 µM (inactive) | 19.4 µM (inactive) | 4.21 µM (inactive) | 5.6 µM (inactive) | 3.84 µM (inactive) | 12.7 µM (inactive) | 4.89 µM (inactive) | 6.15 µM (inactive) | 12.4 µM (inactive) | 2.99 µM (inactive) | 11.8 µM (inactive) | 13.3 µM (inactive) | 3.58 µM (inactive) | 7.41 µM (inactive) | 2.14 µM (inactive) | 11.4 µM (inactive) | 4.61 µM (inactive) | 19.5 µM (inactive) | 4.09 µM (inactive)
2 | Cc1ccc(C(C)C)c(OCC(=O)N/N=C/c2c[nH]c3ccc(Br)cc23)c1 | 3 µM (inactive) | 4.99 µM (inactive) | 2.58 µM (inactive) | 2.29 µM (inactive) | 2.55 µM (inactive) | 1.37 µM (inactive) | 5.11 µM (inactive) | 2.11 µM (inactive) | 0.698 µM (active) | 1.38 µM (inactive) | 12.3 µM (inactive) | 2.56 µM (inactive) | 2 µM (inactive) | 5.62 µM (inactive) | 1.72 µM (inactive) | 3.69 µM (inactive) | – | 3.3 µM (inactive) | 5.79 µM (inactive) | 0.923 µM (active)
3 | C[C@]12CC[C@H]3[C@@H](CCC4=C[C@@H](N5CCCC5)CC[C@@]43C)[C@@H]1C/C(=C\c1ccncc1)[C@@H]2O | 18 µM (inactive) | 18.3 µM (inactive) | 18 µM (inactive) | 15.8 µM (inactive) | 28.8 µM (inactive) | 5.16 µM (inactive) | 18 µM (inactive) | 0.631 µM (active) | 3.16 µM (inactive) | 12 µM (inactive) | 15.9 µM (inactive) | 15.9 µM (inactive) | 20.6 µM (inactive) | 16.4 µM (inactive) | 9.35 µM (inactive) | 8.57 µM (inactive) | 15.6 µM (inactive) | 7.73 µM (inactive) | 4.68 µM (inactive) | 11.4 µM (inactive)
4 | CC(C)(C)OC(=O)NCC(c1c[nH]c2cc(Br)ccc12)c1c[nH]c2cc(Br)ccc12 | 16.7 µM (inactive) | 16.1 µM (inactive) | 15.8 µM (inactive) | 16 µM (inactive) | 26.9 µM (inactive) | 17.6 µM (inactive) | 15.5 µM (inactive) | 16.9 µM (inactive) | > 100 µM (inactive) | 17.3 µM (inactive) | 14.9 µM (inactive) | 17.7 µM (inactive) | 14.9 µM (inactive) | 17.6 µM (inactive) | 20.2 µM (inactive) | 17.5 µM (inactive) | 15.4 µM (inactive) | 34.6 µM (inactive) | 17.4 µM (inactive) | 18.5 µM (inactive)
5 | Cc1cc(Cl)nc2nc(Cl)c(N)cc12 | 2.64 µM (inactive) | 14.6 µM (inactive) | 21.3 µM (inactive) | 2.37 µM (inactive) | 0.354 µM (active) | 8.2 µM (inactive) | 17 µM (inactive) | 2.15 µM (inactive) | 2.88 µM (inactive) | 10.9 µM (inactive) | 2.18 µM (inactive) | 7.03 µM (inactive) | 7.87 µM (inactive) | 3.21 µM (inactive) | 4.71 µM (inactive) | 1.91 µM (inactive) | 21.5 µM (inactive) | 4.6 µM (inactive) | 6.76 µM (inactive) | 1.88 µM (inactive)
6 | CC1CNC(c2ccc(-c3nc(-c4ccc(C5=NC(C)CN5)cc4)nc(N(C)C)n3)cc2)=N1 (stereo not drawn) | 1.55 µM (inactive) | 3.74 µM (inactive) | 1.91 µM (inactive) | 1.73 µM (inactive) | 17.6 µM (inactive) | 3.22 µM (inactive) | 3.24 µM (inactive) | 1.79 µM (inactive) | 0.653 µM (active) | 3.8 µM (inactive) | 3.14 µM (inactive) | 1.78 µM (inactive) | 4.06 µM (inactive) | 2.71 µM (inactive) | 0.855 µM (active) | 1.41 µM (inactive) | 2.02 µM (inactive) | 0.681 µM (active) | 1.47 µM (inactive) | 1.85 µM (inactive)
7 | COCCOC1=C(Cl)C(=O)c2c(O)ccc(O)c2C1=O | 1.94 µM (inactive) | 2.52 µM (inactive) | 16.8 µM (inactive) | 4.81 µM (inactive) | 0.438 µM (active) | 0.798 µM (active) | 6.93 µM (inactive) | 2.37 µM (inactive) | 0.78 µM (active) | 1.95 µM (inactive) | 0.726 µM (active) | 5.26 µM (inactive) | 3.08 µM (inactive) | 2.47 µM (inactive) | 2.16 µM (inactive) | 1.16 µM (inactive) | 12.1 µM (inactive) | 0.105 µM (active) | 3.33 µM (inactive) | 1.34 µM (inactive)
8 | CCC(=O)Nc1ccc(N2C(=O)/C(=C/c3ccc(O)c(OC)c3)N=C2c2ccccc2)cc1 | 9.91 µM (inactive) | 20.4 µM (inactive) | 31 µM (inactive) | 26.4 µM (inactive) | 17.3 µM (inactive) | 10.9 µM (inactive) | 40.8 µM (inactive) | 33.7 µM (inactive) | 13.2 µM (inactive) | 14.3 µM (inactive) | 46.5 µM (inactive) | 28.7 µM (inactive) | 31.1 µM (inactive) | 24 µM (inactive) | 84.1 µM (inactive) | 36.7 µM (inactive) | 19.5 µM (inactive) | 11.3 µM (inactive) | 46.6 µM (inactive) | 31.3 µM (inactive)
9 | CN1CCN2CCN(C)CCN(CC1)CC2 | > 100 µM (inactive) | > 100 µM (inactive) | > 100 µM (inactive) | > 100 µM (inactive) | > 100 µM (inactive) | > 100 µM (inactive) | > 100 µM (inactive) | > 100 µM (inactive) | > 100 µM (inactive) | > 100 µM (inactive) | > 100 µM (inactive) | > 100 µM (inactive) | > 100 µM (inactive) | > 100 µM (inactive) | > 100 µM (inactive) | > 100 µM (inactive) | > 100 µM (inactive) | > 100 µM (inactive) | > 100 µM (inactive) | > 100 µM (inactive)
10 | OC1(c2ccc(Cl)cc2)C(N2CCCC2)c2ccccc2C2=NCCN21 (stereo not drawn) | 20 µM (inactive) | 27 µM (inactive) | 20.9 µM (inactive) | 16.6 µM (inactive) | 26.5 µM (inactive) | 29.1 µM (inactive) | 43.7 µM (inactive) | 7.13 µM (inactive) | 15.1 µM (inactive) | 15.1 µM (inactive) | 12.6 µM (inactive) | 32.4 µM (inactive) | 16.1 µM (inactive) | 17.7 µM (inactive) | 18.5 µM (inactive) | 18.1 µM (inactive) | – | 16 µM (inactive) | 31.8 µM (inactive) | 17.8 µM (inactive)
11 | COc1ccc(-c2c(C#N)c(=O)nc(SC)n2C2OCC(OC(C)=O)C(OC(C)=O)C2OC(C)=O)cc1 (stereo not drawn) | > 100 µM (inactive) | 68.2 µM (inactive) | > 100 µM (inactive) | 33.5 µM (inactive) | > 100 µM (inactive) | > 100 µM (inactive) | > 100 µM (inactive) | 56 µM (inactive) | 5.11 µM (inactive) | 45 µM (inactive) | > 100 µM (inactive) | > 100 µM (inactive) | > 100 µM (inactive) | 63.4 µM (inactive) | > 100 µM (inactive) | 64.1 µM (inactive) | > 100 µM (inactive) | 21.3 µM (inactive) | > 100 µM (inactive) | 83.4 µM (inactive)
12 | c1ccc(N/N=C2\CC(c3ccccc3)Oc3ccccc32)cc1 (stereo not drawn) | 46.2 µM (inactive) | 39.8 µM (inactive) | > 100 µM (inactive) | 40.6 µM (inactive) | 50.2 µM (inactive) | 31.6 µM (inactive) | 46.1 µM (inactive) | 32.4 µM (inactive) | 42.1 µM (inactive) | 40.8 µM (inactive) | 39.1 µM (inactive) | 36 µM (inactive) | 22.6 µM (inactive) | 26.4 µM (inactive) | 37.6 µM (inactive) | 34.2 µM (inactive) | > 100 µM (inactive) | 28.4 µM (inactive) | 61 µM (inactive) | 31.5 µM (inactive)
13 | O=[N+]([O-])c1ccccc1S(=O)(=O)N1CCCc2cc(Cl)ccc21 | > 100 µM (inactive) | 8.91 µM (inactive) | 26.9 µM (inactive) | 23.9 µM (inactive) | > 100 µM (inactive) | 13.8 µM (inactive) | > 93.1 µM (inactive) | 9.35 µM (inactive) | 5.75 µM (inactive) | 19.6 µM (inactive) | 21.5 µM (inactive) | > 90.6 µM (inactive) | 39 µM (inactive) | 15.3 µM (inactive) | 32.4 µM (inactive) | 24.3 µM (inactive) | > 100 µM (inactive) | 6.35 µM (inactive) | 60.3 µM (inactive) | 4.46 µM (inactive)
14 | C=CCn1c(N)c(C#N)c(C#N)c1CCC | > 100 µM (inactive) | > 100 µM (inactive) | > 100 µM (inactive) | > 100 µM (inactive) | > 100 µM (inactive) | > 100 µM (inactive) | > 100 µM (inactive) | > 100 µM (inactive) | 22.5 µM (inactive) | > 100 µM (inactive) | > 100 µM (inactive) | > 100 µM (inactive) | > 100 µM (inactive) | > 100 µM (inactive) | > 100 µM (inactive) | > 100 µM (inactive) | > 100 µM (inactive) | 43.2 µM (inactive) | > 100 µM (inactive) | > 100 µM (inactive)
